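Results reflect a 48-hour exposure of cells in 96-well plates to compound at five concentrations. TGI marks complete inhibition of growth.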
What follows are compounds tested on SK-MEL-28 melanoma (assay: DTP human tumour cell line panel, 48 h).

SMILES	TGI
C=CCC1(O)CC(n2cc(C)c(=O)[nH]c2=O)OC1CO[Si](C)(C)C(C)(C)C (stereo not drawn)	> 100 µM
NC1CC(=O)c2cscc21 (stereo not drawn)	> 100 µM
CC(=O)NC1=C(NCC(C)(C)C)C(=O)c2ccccc2C1=O	> 100 µM
COc1c2c(cc3c1C(=O)c1c(O)cccc1C3=O)CC(O)CC2 (stereo not drawn)	> 100 µM
COc1cc2c(c(OC)c1O)-c1ccc(SC)c(=O)cc1C(NC(C)=O)CC2 (stereo not drawn)	> 100 µM
CC(=O)c1cccc(Nc2nc3ccccc3c3occc23)c1	> 100 µM
O=C(CSC(=S)N1CCCCC1)Nc1nc2c(s1)CCCC2	> 100 µM

These compounds were tested on BT-549 breast (assay: DTP human tumour cell line panel, 48 h).

SMILES	TGI
COc1ccc(/C=c2/sc3n(c2=O)C(c2ccccc2)C2(O)CCCCC2N=3)cc1 (stereo not drawn)	> 12.5 µM
CCN(CC)c1ccc2cc(C(N)=O)c(=N)oc2c1	> 100 µM
Cc1ccc2c(c1)[nH]c(=S)n2C=C(C(N)=O)C(N)=O	> 100 µM
C=CC[C@H]1O[Si](C(C)(C)C)(C(C)(C)C)[C@H](C)[C@H]1C	> 100 µM
Cc1ccc(Nc2nc(=O)c3c4ccccc4n(C(=O)OC(C)(C)C)c3s2)cc1	56.5 µM
N#Cc1cccc2c1Sc1ccccc1N2	79.8 µM
NC1c2c(Br)sc(N3CCCC3)c2C(=O)C1O (stereo not drawn)	> 50 µM
CSC1=C(C#N)C(=S)N=C(N)C1C(=O)Nc1ccc(C)cc1 (stereo not drawn)	> 100 µM
COc1ccc2c(c1)CC[C@@H]1[C@@H]2CC[C@]2(C)C(=O)/C(=C/c3ccc(N(C)C)cc3)C[C@@H]12	70.6 µM
CSCCCN(CCCSC)CCCSC	> 100 µM
Cc1ccc(-c2n[nH]c(Cc3nc(-c4ccc(C)cc4)n[nH]3)n2)cc1	> 100 µM
CN(CC(=O)N1CC(CCl)c2ccc([N+](=O)[O-])cc21)CC(=O)N1CC(CCl)c2ccc([N+](=O)[O-])cc21 (stereo not drawn)	> 100 µM
C=CCC1(O)CC(n2cc(C)c(=O)[nH]c2=O)OC1CO[Si](C)(C)C(C)(C)C (stereo not drawn)	> 100 µM
NC1CC(=O)c2cscc21 (stereo not drawn)	> 100 µM
COc1c2c(cc3c1C(=O)c1c(O)cccc1C3=O)CC(O)CC2 (stereo not drawn)	43.1 µM
CC(=O)c1cccc(Nc2nc3ccccc3c3occc23)c1	39.6 µM

These compounds were tested on HCT-116 colon (assay: DTP human tumour cell line panel, 48 h).

SMILES	TGI
COc1ccc(/C=c2/sc3n(c2=O)C(c2ccccc2)C2(O)CCCCC2N=3)cc1 (stereo not drawn)	> 12.5 µM
CCN(CC)c1ccc2cc(C(N)=O)c(=N)oc2c1	> 100 µM
Cc1ccc2c(c1)[nH]c(=S)n2C=C(C(N)=O)C(N)=O	> 100 µM
C=CC[C@H]1O[Si](C(C)(C)C)(C(C)(C)C)[C@H](C)[C@H]1C	> 100 µM
N#Cc1cccc2c1Sc1ccccc1N2	> 100 µM
NC1c2c(Br)sc(N3CCCC3)c2C(=O)C1O (stereo not drawn)	> 50 µM
CSC1=C(C#N)C(=S)N=C(N)C1C(=O)Nc1ccc(C)cc1 (stereo not drawn)	> 100 µM
C/C=C/C(C#N)(/C=C/c1ccccc1)OP1(=O)OC(c2ccccc2)C(C)N1C (stereo not drawn)	31.3 µM
COc1ccc2c(c1)CC[C@@H]1[C@@H]2CC[C@]2(C)C(=O)/C(=C/c3ccc(N(C)C)cc3)C[C@@H]12	> 100 µM
CN(C)CCCN1c2ccc([N+](=O)[O-])cc2CCc2cccc([N+](=O)[O-])c21	27.3 µM
Cc1cc(=O)[nH]c(NNC(C#N)c2cccc(O)c2)n1 (stereo not drawn)	> 100 µM
CCOC(=O)c1c(SC(=O)c2ccc(C(C)(C)C)cc2)n(-c2ccccc2)c(=S)n(-c2ccccc2)c1=O	> 100 µM
CSCCCN(CCCSC)CCCSC	> 100 µM
COc1cc(-c2ccc(Br)[nH]2)[nH]c1C=NCC(C)C	2.86 µM
Cc1ccc(-c2n[nH]c(Cc3nc(-c4ccc(C)cc4)n[nH]3)n2)cc1	> 100 µM
CN(CC(=O)N1CC(CCl)c2ccc([N+](=O)[O-])cc21)CC(=O)N1CC(CCl)c2ccc([N+](=O)[O-])cc21 (stereo not drawn)	> 100 µM
Cc1c2n(c(=O)[nH]c1=O)C1OC(CO)C(O2)C1N=[N+]=[N-] (stereo not drawn)	> 100 µM
CCOC(=O)c1ncn2c1[nH]c(=S)c1ccccc12	> 100 µM
O=C(O)CCC(NC(=O)c1ccc(OCc2nc3cc(C(F)(F)F)ccc3nc2-c2ccccc2)cc1)C(=O)O (stereo not drawn)	> 100 µM
COc1ccc(-c2cc(=O)c3ccc(O)cc3o2)c(OC)c1OC	> 100 µM
C=CCC1(O)CC(n2cc(C)c(=O)[nH]c2=O)OC1CO[Si](C)(C)C(C)(C)C (stereo not drawn)	> 100 µM
NC1CC(=O)c2cscc21 (stereo not drawn)	> 100 µM
CC(=O)NC1=C(NCC(C)(C)C)C(=O)c2ccccc2C1=O	> 100 µM
COc1c2c(cc3c1C(=O)c1c(O)cccc1C3=O)CC(O)CC2 (stereo not drawn)	> 100 µM
COc1cc2c(c(OC)c1O)-c1ccc(SC)c(=O)cc1C(NC(C)=O)CC2 (stereo not drawn)	0.252 µM
CC(=O)c1cccc(Nc2nc3ccccc3c3occc23)c1	50 µM
O=C(CSC(=S)N1CCCCC1)Nc1nc2c(s1)CCCC2	32.2 µM

Each compound was assayed on NCI-H23 lung (assay: DTP human tumour cell line panel, 48 h).

SMILES	TGI
COc1ccc(/C=c2/sc3n(c2=O)C(c2ccccc2)C2(O)CCCCC2N=3)cc1 (stereo not drawn)	> 12.5 µM
CCN(CC)c1ccc2cc(C(N)=O)c(=N)oc2c1	> 100 µM
Cc1ccc2c(c1)[nH]c(=S)n2C=C(C(N)=O)C(N)=O	> 100 µM
C=CC[C@H]1O[Si](C(C)(C)C)(C(C)(C)C)[C@H](C)[C@H]1C	> 100 µM
Cc1ccc(Nc2nc(=O)c3c4ccccc4n(C(=O)OC(C)(C)C)c3s2)cc1	50.4 µM
N#Cc1cccc2c1Sc1ccccc1N2	> 100 µM
NC1c2c(Br)sc(N3CCCC3)c2C(=O)C1O (stereo not drawn)	> 50 µM
CSC1=C(C#N)C(=S)N=C(N)C1C(=O)Nc1ccc(C)cc1 (stereo not drawn)	> 100 µM
COc1ccc2c(c1)CC[C@@H]1[C@@H]2CC[C@]2(C)C(=O)/C(=C/c3ccc(N(C)C)cc3)C[C@@H]12	> 100 µM
CN(C)CCCN1c2ccc([N+](=O)[O-])cc2CCc2cccc([N+](=O)[O-])c21	31.2 µM
Cc1cc(=O)[nH]c(NNC(C#N)c2cccc(O)c2)n1 (stereo not drawn)	> 100 µM
CCOC(=O)c1c(SC(=O)c2ccc(C(C)(C)C)cc2)n(-c2ccccc2)c(=S)n(-c2ccccc2)c1=O	> 100 µM
CSCCCN(CCCSC)CCCSC	> 100 µM
COc1cc(-c2ccc(Br)[nH]2)[nH]c1C=NCC(C)C	4.14 µM
Cc1ccc(-c2n[nH]c(Cc3nc(-c4ccc(C)cc4)n[nH]3)n2)cc1	> 100 µM
CN(CC(=O)N1CC(CCl)c2ccc([N+](=O)[O-])cc21)CC(=O)N1CC(CCl)c2ccc([N+](=O)[O-])cc21 (stereo not drawn)	> 100 µM
Cc1c2n(c(=O)[nH]c1=O)C1OC(CO)C(O2)C1N=[N+]=[N-] (stereo not drawn)	> 100 µM
CCOC(=O)c1ncn2c1[nH]c(=S)c1ccccc12	> 100 µM
O=C(O)CCC(NC(=O)c1ccc(OCc2nc3cc(C(F)(F)F)ccc3nc2-c2ccccc2)cc1)C(=O)O (stereo not drawn)	> 100 µM
COc1ccc(-c2cc(=O)c3ccc(O)cc3o2)c(OC)c1OC	> 100 µM
C=CCC1(O)CC(n2cc(C)c(=O)[nH]c2=O)OC1CO[Si](C)(C)C(C)(C)C (stereo not drawn)	> 100 µM
NC1CC(=O)c2cscc21 (stereo not drawn)	> 100 µM
CC(=O)NC1=C(NCC(C)(C)C)C(=O)c2ccccc2C1=O	> 100 µM
COc1c2c(cc3c1C(=O)c1c(O)cccc1C3=O)CC(O)CC2 (stereo not drawn)	47 µM
COc1cc2c(c(OC)c1O)-c1ccc(SC)c(=O)cc1C(NC(C)=O)CC2 (stereo not drawn)	3.79 µM
CC(=O)c1cccc(Nc2nc3ccccc3c3occc23)c1	50.8 µM
O=C(CSC(=S)N1CCCCC1)Nc1nc2c(s1)CCCC2	92.7 µM

The compounds below were run on RXF 393 renal (assay: DTP human tumour cell line panel, 48 h).

SMILES	TGI
CCN(CC)c1ccc2cc(C(N)=O)c(=N)oc2c1	> 100 µM
Cc1ccc2c(c1)[nH]c(=S)n2C=C(C(N)=O)C(N)=O	> 100 µM
N#Cc1cccc2c1Sc1ccccc1N2	33.7 µM
CSC1=C(C#N)C(=S)N=C(N)C1C(=O)Nc1ccc(C)cc1 (stereo not drawn)	> 100 µM
C/C=C/C(C#N)(/C=C/c1ccccc1)OP1(=O)OC(c2ccccc2)C(C)N1C (stereo not drawn)	38.5 µM
COc1ccc2c(c1)CC[C@@H]1[C@@H]2CC[C@]2(C)C(=O)/C(=C/c3ccc(N(C)C)cc3)C[C@@H]12	87.2 µM
CN(C)CCCN1c2ccc([N+](=O)[O-])cc2CCc2cccc([N+](=O)[O-])c21	22.8 µM
Cc1cc(=O)[nH]c(NNC(C#N)c2cccc(O)c2)n1 (stereo not drawn)	> 100 µM
CCOC(=O)c1c(SC(=O)c2ccc(C(C)(C)C)cc2)n(-c2ccccc2)c(=S)n(-c2ccccc2)c1=O	> 100 µM
Cc1ccc(-c2n[nH]c(Cc3nc(-c4ccc(C)cc4)n[nH]3)n2)cc1	> 100 µM
CCOC(=O)c1ncn2c1[nH]c(=S)c1ccccc12	> 100 µM
O=C(O)CCC(NC(=O)c1ccc(OCc2nc3cc(C(F)(F)F)ccc3nc2-c2ccccc2)cc1)C(=O)O (stereo not drawn)	> 100 µM
COc1ccc(-c2cc(=O)c3ccc(O)cc3o2)c(OC)c1OC	91.8 µM
C=CCC1(O)CC(n2cc(C)c(=O)[nH]c2=O)OC1CO[Si](C)(C)C(C)(C)C (stereo not drawn)	> 100 µM
NC1CC(=O)c2cscc21 (stereo not drawn)	> 100 µM
CC(=O)NC1=C(NCC(C)(C)C)C(=O)c2ccccc2C1=O	> 100 µM
COc1cc2c(c(OC)c1O)-c1ccc(SC)c(=O)cc1C(NC(C)=O)CC2 (stereo not drawn)	> 100 µM
CC(=O)c1cccc(Nc2nc3ccccc3c3occc23)c1	41.7 µM

These compounds were tested on OVCAR-4 ovarian (assay: DTP human tumour cell line panel, 48 h).

SMILES	TGI
COc1ccc(/C=c2/sc3n(c2=O)C(c2ccccc2)C2(O)CCCCC2N=3)cc1 (stereo not drawn)	> 12.5 µM
CCN(CC)c1ccc2cc(C(N)=O)c(=N)oc2c1	74.1 µM
Cc1ccc2c(c1)[nH]c(=S)n2C=C(C(N)=O)C(N)=O	> 100 µM
C=CC[C@H]1O[Si](C(C)(C)C)(C(C)(C)C)[C@H](C)[C@H]1C	> 100 µM
Cc1ccc(Nc2nc(=O)c3c4ccccc4n(C(=O)OC(C)(C)C)c3s2)cc1	> 100 µM
NC1c2c(Br)sc(N3CCCC3)c2C(=O)C1O (stereo not drawn)	> 50 µM
CSC1=C(C#N)C(=S)N=C(N)C1C(=O)Nc1ccc(C)cc1 (stereo not drawn)	> 100 µM
COc1ccc2c(c1)CC[C@@H]1[C@@H]2CC[C@]2(C)C(=O)/C(=C/c3ccc(N(C)C)cc3)C[C@@H]12	> 100 µM
CN(C)CCCN1c2ccc([N+](=O)[O-])cc2CCc2cccc([N+](=O)[O-])c21	13.9 µM
Cc1cc(=O)[nH]c(NNC(C#N)c2cccc(O)c2)n1 (stereo not drawn)	> 100 µM
CCOC(=O)c1c(SC(=O)c2ccc(C(C)(C)C)cc2)n(-c2ccccc2)c(=S)n(-c2ccccc2)c1=O	> 100 µM
CSCCCN(CCCSC)CCCSC	> 100 µM
COc1cc(-c2ccc(Br)[nH]2)[nH]c1C=NCC(C)C	12.8 µM
Cc1ccc(-c2n[nH]c(Cc3nc(-c4ccc(C)cc4)n[nH]3)n2)cc1	> 100 µM
Cc1c2n(c(=O)[nH]c1=O)C1OC(CO)C(O2)C1N=[N+]=[N-] (stereo not drawn)	> 100 µM
CCOC(=O)c1ncn2c1[nH]c(=S)c1ccccc12	> 100 µM
O=C(O)CCC(NC(=O)c1ccc(OCc2nc3cc(C(F)(F)F)ccc3nc2-c2ccccc2)cc1)C(=O)O (stereo not drawn)	> 100 µM
COc1ccc(-c2cc(=O)c3ccc(O)cc3o2)c(OC)c1OC	> 100 µM

From PubChem BioAssay (NCI)
